Reference: US11834431B2, “Crystals of cyclic amine derivative and pharmaceutical use thereof” (Toray Industries, Inc., priority 2016, dated 2023)
Read-outs that look alike come from different tables or passages of the source.

What was measured:
fibromyalgia model rats = assay: Analgesic effect on allodynia in fibromyalgia model rats (von Frey, 50% response threshold); format: in vivo, rat; settings: measured 3 hours after administration, Day 7, compared to negative control group
Description: The analgesic effect of the crystal of compound (I) or the pharmacologically acceptable salt thereof against fibromyalgia syndrome was evaluated using fibromyalgia model rats (Sluka et al., Journal of Pharmacology and Experimental Therapeutics, 2002, vol. 302, pp. 1146-1150; Nagakura et al., Pain, 2009, vol. 146, pp. 26-33; Sluka et al., Pain, 2009, vol. 146, pp. 3-4). Form A crystal of compound (I) was used as a crystal of compound (I) or the pharmacologically acceptable salt thereof for evaluation.
The above model rats were prepared as follows. In experiments, 6-to 7-week-old SD male rats were used for 5 or 6 cases per group. 100 μL of acidic physiological saline adjusted to pH 4.0 was administered twice to the gastrocnemius muscle of the right hind paw of each rat (the day of the administration of acidic physiological saline was defined as Day 1 after the start of the experiment, and single dose administrations were carried out on Days 1 and 6 after the start of the experiment) under inhalation anesthesia with isoflurane. The thus prepared group was determined to be an acidic physiological saline group. As a control for the model, a group treated with a physiological saline instead of an acidic physiological saline was determined to be a physiological saline group.
Allodynia observed in fibromyalgia model rats was measured using a von Frey filaments according to a method described in a known publication (Chaplan et al., Journal of Neuroscience Methods, 1994, vol. 53, pp. 55-63) and a 50% response threshold (g) was determined. On Day 7 after the start of the experiment, allodynia was measured 3 hours after oral administration of Form A crystal of compound (I), and the analgesic effect was evaluated. Allodynia of the acidic physiological saline group was measured before oral administration of Form A crystal of compound (I). […] Allodynia was measured 3 hours after the oral administration of the crystal of compound (I), and the analgesic effect was evaluated. […]

[1] = Evaluation of storage stability, Form A crystal versus amorphous matter (HPLC purity); format: physicochemical; settings: for Chemical purity, After storage / Decomposition product increased by not less than 0.15% after storage / Optical purity, After storage: airtight state, listed as Form A
[2] = Evaluation of storage stability of Form A crystal, 6 months (HPLC purity, powder X-ray diffraction, TG-DTA); format: physicochemical
[3] = Evaluation of hygroscopicity (equilibrium moisture measurement); format: physicochemical; settings: for Weight increase: humidification with an increase in relative humidity from 5% to 65%; for Weight increase / Change in appearance: 30° C.; for Change in appearance: humidification
Description: Equilibrium moisture measurement was performed on Form A crystal and the amorphous matter of compound (I) under the following conditions using a fully automated symmetric vapor sorption analyzer (TA Instruments Inc.; VTI-SA+). […] The change in appearance was also observed.

[4] = Evaluation of solubility in Japanese Pharmacopoeia test fluids; format: physicochemical; settings: thermodynamic from solid
Description: Form A crystal of compound (I) (100 mg) was weighed into a borosilicate glass vial, and the 1st fluid for disintegration test/1st fluid for dissolution test of the Japanese Pharmacopoeia 16th edition (pH 1.2)(1 mL) or the 2nd fluid for disintegration test of the Japanese Pharmacopoeia 16th edition (pH 6.8)(1 mL) was added in a temperature and humidity test chamber (Amefrec Co., Ltd.; NO DOORα) adjusted to 37° C., followed by stirring. Form B crystal of ethane disulfonate of compound (I) (10 mg) was weighed into a borosilicate glass vial, and the 2nd fluid for disintegration test of the Japanese Pharmacopoeia 16th edition (pH 6.8) (0.1 mL) was added in a temperature and humidity test chamber (Amefrec Co., Ltd.; NO DOORα) adjusted to 37° C., followed by stirring. After 30 minutes, the inside of each vial was visually checked, and it was confirmed that each crystal was completely dissolved.

[5] = 40° C., relative humidity 75%, 8 weeks
[6] = Storage test 1: 25° C., relative humidity 60%, open state
[7] = Storage test 2: 40° C., relative humidity 75%, airtight state
[8] = Storage test 3: 60° C., airtight state
[9] = any of storage tests 1 to 3, 6 months
[10] = listed as Form A crystal of compound (I)

CN(C)C1CCN(C(=O)C[C@H](O)c2nccn2C)CC1 [Form A crystal, (S)-1-(4-(dimethylamino)piperidin-1-yl)-3-hydroxy-3-(1-methyl-1H-imidazol-2-yl)propan-1-one]
improvement of allodynia (50% response threshold) (fibromyalgia model rats; oral 1 mg/kg): significant improvement | improvement of allodynia (50% response threshold) (fibromyalgia model rats; oral 10 mg/kg): significant improvement | Chemical purity, After storage [1, 5]: 99.9% | Decomposition product increased by not less than 0.15% after storage [1, 5]: None | Optical purity, After storage [1, 5]: 98.8 % ee | Chemical purity, After storage ([1]; 60° C., 4 weeks): 99.8% | Decomposition product increased by not less than 0.15% after storage ([1]; 60° C., 4 weeks): None | Optical purity, After storage ([1]; 60° C., 4 weeks): 98.8 % ee | Chemical purity, Initial value ([1]; before storage): 99.9% | Optical purity, Initial value ([1]; before storage): 98.6 % ee | Chemical purity, After 6 months [2, 6]: 99.8% | Crystal form after 6 months [2, 6]: Form A | Decomposition product increased by not less than 0.15% after 6 months [2, 6]: None | Optical purity, After 6 months [2, 6]: 99.0 % ee | Chemical purity, After 6 months [2, 7]: 99.8% | Crystal form after 6 months [2, 7]: Form A | Decomposition product increased by not less than 0.15% after 6 months [2, 7]: None | Optical purity, After 6 months [2, 7]: 99.0 % ee | Chemical purity, After 6 months [2, 8]: 99.8% | Crystal form after 6 months [2, 8]: Form A | Decomposition product increased by not less than 0.15% after 6 months [2, 8]: None | Optical purity, After 6 months [2, 8]: 99.0 % ee | change in the crystal form on storage [2, 9]: no change was observed | change of purity on storage [2, 9]: did not change | Chemical purity, Initial value ([2]; before storage): 99.8% | Optical purity, Initial value ([2]; before storage): 98.8 % ee | Weight increase [3]: 0.1% | Weight increase [3, 10]: did not experience an increase in weight | Change in appearance [3]: Maintenance of white powder | Change in appearance [3, 10]: did not deliquesce | change in the crystal form after the hygroscopicity evaluation test ([3]; powder X-ray diffraction after humidification): did not experience a change in the crystal form | solubility at 30 min ([4]; Japanese Pharmacopoeia test fluids, text summary of Table 5, 37° C., read-out: solubilities): ≥ 100 mg/mL | solubility at 30 min ([4]; simulated gastric fluid, 1st fluid for disintegration test/1st fluid for dissolution test of the Japanese Pharmacopoeia 16th edition (pH 1.2), 37° C., 30 minutes, read-out: Solubility (37° C.)): > 100 mg/mL
